# Assay results taken from ChEMBL document CHEMBL1201862, “PubChem BioAssay data set” (2004).
#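 Method: 48-hour compound exposure of cells in 96-well plates, five concentrations, linear interpolation of endpoints. The concentration for 50% growth inhibition is given as GI50.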 Active and inactive are the calls of the source. Rule as the data show it: active = GI50 up to about 1.1 µM and inactive = higher.
# Experiments:
# Assay in all cases: NCI-60 cell line screen, 48 h
# SK-MEL-2 = tested on: SK-MEL-2
# EKVX = tested on: EKVX
# IGROV-1 = tested on: IGROV-1
# NCI-H460 = tested on: NCI-H460
# U-251 = tested on: U-251
# MCF7 = tested on: MCF7
# SF-295 = tested on: SF-295
# OVCAR-8 = tested on: OVCAR-8
# SNB-75 = tested on: SNB-75
# TK-10 = tested on: TK-10
# SR = tested on: SR
# MDA-MB-435 = tested on: MDA-MB-435
# RXF 393 = tested on: RXF 393
# HCT-15 = tested on: HCT-15
# NCI-H522 = tested on: NCI-H522
# UO-31 = tested on: UO-31
# HT-29 = tested on: HT-29
# M14 = tested on: M14
# SN12C = tested on: SN12C
# RPMI-8226 = tested on: RPMI-8226
# COLO 205 = tested on: COLO 205
# BT-549 = tested on: BT-549
# KM12 = tested on: KM12
# UACC-62 = tested on: UACC-62
# NCI/ADR-RES = tested on: NCI/ADR-RES
# SF-268 = tested on: SF-268
# HCC 2998 = tested on: HCC 2998
# OVCAR-5 = tested on: OVCAR-5
# DU-145 = tested on: DU-145
# SK-MEL-28 = tested on: SK-MEL-28
# NCI-H23 = tested on: NCI-H23
# MDA-MB-231 = tested on: MDA-MB-231
# MOLT-4 = tested on: MOLT-4
# CCRF-CEM = tested on: CCRF-CEM
# SF-539 = tested on: SF-539
# SK-OV-3 = tested on: SK-OV-3
# Hs-578T = tested on: Hs-578T
# K562 = tested on: K562
# A549 = tested on: A549
# HOP-92 = tested on: HOP-92
# T47D = tested on: T47D
# SNB-19 = tested on: SNB-19
# SW-620 = tested on: SW-620
# ACHN = tested on: ACHN
# HCT-116 = tested on: HCT-116
# OVCAR-4 = tested on: OVCAR-4
# OVCAR-3 = tested on: OVCAR-3
# CAKI-1 = tested on: CAKI-1
# SK-MEL-5 = tested on: SK-MEL-5
# HL-60 = tested on: HL-60
# UACC-257 = tested on: UACC-257
# A498 = tested on: A498
# HOP-62 = tested on: HOP-62
# 786-0 = tested on: 786-0
# PC-3 = tested on: PC-3
# Malme-3M = tested on: Malme-3M
# NCI-H226 = tested on: NCI-H226
# LOX IMVI = tested on: LOX IMVI
smiles,measurement,setting,value
CCOC(=O)/C(=N/Nc1ccc(C)cc1)N1C(=S)N(C)N=C(C)C=C1S,GI50,SK-MEL-2,58.1 µM (inactive)
same,GI50,EKVX,> 100 µM (inactive)
same,GI50,IGROV-1,> 100 µM (inactive)
same,GI50,NCI-H460,> 100 µM (inactive)
same,GI50,U-251,24.1 µM (inactive)
same,GI50,MCF7,> 100 µM (inactive)
same,GI50,SF-295,19.1 µM (inactive)
same,GI50,OVCAR-8,75 µM (inactive)
same,GI50,SNB-75,29.3 µM (inactive)
same,GI50,TK-10,45.7 µM (inactive)
same,GI50,SR,> 100 µM (inactive)
same,GI50,MDA-MB-435,> 100 µM (inactive)
same,GI50,RXF 393,41.7 µM (inactive)
same,GI50,HCT-15,> 100 µM
same,GI50,NCI-H522,> 100 µM (inactive)
same,GI50,UO-31,> 100 µM (inactive)
same,GI50,HT-29,> 100 µM (inactive)
same,GI50,M14,> 100 µM (inactive)
same,GI50,SN12C,> 100 µM (inactive)
same,GI50,RPMI-8226,> 100 µM (inactive)
same,GI50,COLO 205,> 100 µM (inactive)
same,GI50,BT-549,23.1 µM (inactive)
same,GI50,KM12,> 100 µM (inactive)
same,GI50,UACC-62,> 100 µM (inactive)
same,GI50,NCI/ADR-RES,> 100 µM (inactive)
same,GI50,SF-268,33.8 µM (inactive)
same,GI50,HCC 2998,> 100 µM (inactive)
same,GI50,OVCAR-5,> 100 µM (inactive)
same,GI50,DU-145,> 100 µM (inactive)
same,GI50,SK-MEL-28,> 100 µM (inactive)
same,GI50,NCI-H23,94.4 µM (inactive)
same,GI50,MDA-MB-231,32.7 µM (inactive)
same,GI50,MOLT-4,> 100 µM (inactive)
same,GI50,CCRF-CEM,> 100 µM (inactive)
same,GI50,SF-539,> 100 µM (inactive)
same,GI50,SK-OV-3,55.6 µM (inactive)
same,GI50,Hs-578T,25.7 µM (inactive)
same,GI50,K562,> 100 µM (inactive)
same,GI50,A549,> 100 µM (inactive)
same,GI50,HOP-92,49.5 µM (inactive)
same,GI50,T47D,> 100 µM (inactive)
same,GI50,SNB-19,69.8 µM (inactive)
same,GI50,SW-620,> 100 µM (inactive)
same,GI50,ACHN,> 100 µM (inactive)
same,GI50,HCT-116,> 100 µM (inactive)
same,GI50,OVCAR-4,> 100 µM (inactive)
same,GI50,OVCAR-3,> 100 µM (inactive)
same,GI50,CAKI-1,77.1 µM (inactive)
same,GI50,SK-MEL-5,> 100 µM (inactive)
same,GI50,HL-60,> 100 µM (inactive)
same,GI50,UACC-257,> 100 µM (inactive)
CC1=NC2=Nc3nc(C)cc[n+]3CN2C=C1,GI50,A498,> 100 µM (inactive)
same,GI50,SK-MEL-2,> 100 µM (inactive)
same,GI50,EKVX,30.7 µM (inactive)
same,GI50,IGROV-1,39.9 µM (inactive)
same,GI50,HOP-62,89.3 µM (inactive)
same,GI50,NCI-H460,43.2 µM (inactive)
same,GI50,U-251,> 100 µM (inactive)
same,GI50,MCF7,> 100 µM (inactive)
same,GI50,SF-295,85.5 µM (inactive)
same,GI50,OVCAR-8,> 100 µM (inactive)
same,GI50,SNB-75,> 100 µM (inactive)
same,GI50,786-0,48.3 µM (inactive)
same,GI50,TK-10,88.3 µM (inactive)
same,GI50,MDA-MB-435,40 µM (inactive)
same,GI50,RXF 393,> 100 µM (inactive)
same,GI50,HCT-15,88.5 µM
same,GI50,NCI-H522,> 100 µM (inactive)
same,GI50,UO-31,> 100 µM (inactive)
same,GI50,HT-29,31.8 µM (inactive)
same,GI50,M14,> 100 µM (inactive)
same,GI50,SN12C,92.5 µM (inactive)
same,GI50,PC-3,> 100 µM (inactive)
same,GI50,RPMI-8226,19.1 µM (inactive)
same,GI50,COLO 205,67.5 µM (inactive)
same,GI50,BT-549,49.3 µM (inactive)
same,GI50,UACC-62,44.2 µM (inactive)
same,GI50,NCI/ADR-RES,> 100 µM (inactive)
same,GI50,Malme-3M,49.5 µM (inactive)
same,GI50,SF-268,> 100 µM (inactive)
same,GI50,HCC 2998,58.2 µM (inactive)
same,GI50,OVCAR-5,> 100 µM (inactive)
same,GI50,DU-145,> 100 µM (inactive)
same,GI50,SK-MEL-28,53.1 µM (inactive)
same,GI50,NCI-H23,> 100 µM (inactive)
same,GI50,MDA-MB-231,54.7 µM (inactive)
same,GI50,NCI-H226,> 100 µM (inactive)
same,GI50,SF-539,> 100 µM (inactive)
same,GI50,SK-OV-3,> 100 µM (inactive)
same,GI50,Hs-578T,> 100 µM (inactive)
same,GI50,A549,79.3 µM (inactive)
same,GI50,HOP-92,95.7 µM (inactive)
same,GI50,T47D,70 µM (inactive)
same,GI50,SNB-19,> 100 µM (inactive)
same,GI50,SW-620,> 100 µM (inactive)
same,GI50,ACHN,> 100 µM (inactive)
same,GI50,HCT-116,38.9 µM (inactive)
same,GI50,OVCAR-4,> 100 µM (inactive)
same,GI50,LOX IMVI,29.8 µM (inactive)
same,GI50,OVCAR-3,> 100 µM (inactive)
same,GI50,CAKI-1,0.144 µM (active)
same,GI50,SK-MEL-5,53.3 µM (inactive)
same,GI50,UACC-257,> 100 µM (inactive)
CC1=CC2C(C(C)C)CC1C1C(=O)OC(=O)C21 (centres undefined),GI50,A498,> 100 µM (inactive)
same,GI50,SK-MEL-2,> 100 µM (inactive)
same,GI50,EKVX,> 100 µM (inactive)
same,GI50,IGROV-1,14.4 µM (inactive)
same,GI50,HOP-62,99.3 µM (inactive)
same,GI50,NCI-H460,> 100 µM (inactive)
same,GI50,U-251,64.1 µM (inactive)
same,GI50,MCF7,> 100 µM (inactive)
same,GI50,OVCAR-8,65.6 µM (inactive)
same,GI50,SNB-75,> 100 µM (inactive)
same,GI50,786-0,> 100 µM (inactive)
same,GI50,TK-10,45.8 µM (inactive)
same,GI50,MDA-MB-435,> 100 µM (inactive)
same,GI50,RXF 393,> 100 µM (inactive)
same,GI50,HCT-15,58.2 µM
same,GI50,NCI-H522,52.7 µM (inactive)
same,GI50,UO-31,> 100 µM (inactive)
same,GI50,HT-29,> 100 µM (inactive)
same,GI50,M14,> 100 µM (inactive)
same,GI50,SN12C,79.3 µM (inactive)
same,GI50,PC-3,76.6 µM (inactive)
same,GI50,COLO 205,> 100 µM (inactive)
same,GI50,BT-549,84.1 µM (inactive)
same,GI50,UACC-62,> 100 µM (inactive)
same,GI50,NCI/ADR-RES,77.3 µM (inactive)
same,GI50,Malme-3M,52 µM (inactive)
same,GI50,SF-268,> 100 µM (inactive)
same,GI50,HCC 2998,30.9 µM (inactive)
same,GI50,OVCAR-5,> 100 µM (inactive)
same,GI50,DU-145,> 100 µM (inactive)
same,GI50,SK-MEL-28,> 100 µM (inactive)
same,GI50,NCI-H23,> 100 µM (inactive)
same,GI50,MDA-MB-231,> 100 µM (inactive)
same,GI50,NCI-H226,> 100 µM (inactive)
same,GI50,SF-539,> 100 µM (inactive)
same,GI50,SK-OV-3,> 100 µM (inactive)
same,GI50,Hs-578T,75.3 µM (inactive)
same,GI50,K562,39.7 µM (inactive)
same,GI50,A549,> 100 µM (inactive)
same,GI50,HOP-92,65.5 µM (inactive)
same,GI50,T47D,49.8 µM (inactive)
same,GI50,SNB-19,> 100 µM (inactive)
same,GI50,SW-620,86.9 µM (inactive)
same,GI50,ACHN,> 100 µM (inactive)
same,GI50,HCT-116,76.7 µM (inactive)
same,GI50,OVCAR-4,91 µM (inactive)
same,GI50,LOX IMVI,> 100 µM (inactive)
same,GI50,OVCAR-3,23.2 µM (inactive)
same,GI50,SK-MEL-5,85.5 µM (inactive)
same,GI50,HL-60,23.3 µM (inactive)
same,GI50,UACC-257,> 100 µM (inactive)
